Test results from US10597391B2, “Urea-containing isoxazole derivatives as FXR agonists and methods of use thereof” (Enanta Pharmaceuticals, Inc., priority 2016, dated 2020).
Read-outs that look alike come from different tables or passages of the source.

Molecular target: T1, human FXR (NR1H4) (Homo sapiens, UniProt Q96RI1)
T1 sequence (Q96RI1 1-486): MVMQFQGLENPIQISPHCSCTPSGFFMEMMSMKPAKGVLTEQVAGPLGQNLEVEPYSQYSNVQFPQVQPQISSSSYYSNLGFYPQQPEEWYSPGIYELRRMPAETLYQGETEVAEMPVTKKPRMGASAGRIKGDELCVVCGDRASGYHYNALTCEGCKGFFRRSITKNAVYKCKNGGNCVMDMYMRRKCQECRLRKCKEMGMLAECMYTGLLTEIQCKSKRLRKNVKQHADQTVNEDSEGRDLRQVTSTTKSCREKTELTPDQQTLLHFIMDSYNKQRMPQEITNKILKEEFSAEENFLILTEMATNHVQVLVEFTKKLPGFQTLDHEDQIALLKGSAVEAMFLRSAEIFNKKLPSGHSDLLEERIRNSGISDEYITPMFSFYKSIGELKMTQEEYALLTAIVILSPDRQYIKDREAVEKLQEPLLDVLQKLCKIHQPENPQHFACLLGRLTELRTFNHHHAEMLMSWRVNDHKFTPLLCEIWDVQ
Test: Human FXR (NR1H4) Assay: Gal4 promoter driven luciferase reporter transactivation in CHO cells (Indigo Bioscience kit IB00601)
Type: cell-based
Conditions: for Emax: CHO, read-out: Efficacy (%); for EC50: potency range, Human FXR (NR1H4) reporter assay in CHO cells, read-out: EC50
Method in brief: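 CHO reporter cells expressing human NR1H4 with luciferase driven by an FXR-responsive promoter (Gal4 system), run per manufacturer's kit. Compounds applied to plated cells, then incubated a further 22 hours at 37° C. Luciferase luminescence read after detection reagent as a surrogate of FXR activation, giving potency and efficacy.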

[1] = efficacy normalized to CDCA set as 100%

SMILES | Emax [1] | EC50 | Emax
O=C(NCc1cncc(-c2ccccc2)c1)N1C2CCC1CC(OCc1c(-c3c(Cl)cccc3Cl)noc1C1CC1)C2 (centres unmarked) [Example 739] | 108% | 0.01 to 0.1 µM | 
O=C(O)c1ccc(NC(=O)N2C3CCC2CC(OCc2c(-c4ccccc4C4CC4)noc2C2CC2)C3)cc1-c1ccccc1 (centres unmarked) [Example 814] | 112% | 0.01 to 0.1 µM | 
O=C(Nc1cc(F)cc(C(F)(F)F)c1)N1C2CCC1CC(OCc1c(-c3c(Cl)cccc3Cl)noc1C1CC1)C2 (centres unmarked) [Example 11] |  | < 0.01 µM | 
O=C(NCc1ccc(-c2ccccc2)cc1)N1C2CCC1CC(OCc1c(-c3c(Cl)cccc3Cl)noc1C1CC1)C2 (centres unmarked) [Example 738] | 139% | 0.1 to 1 µM | 
O=C(O)c1ccc(NC(=O)N2C3CCC2CC(OCc2c(-c4c(Cl)cccc4Cl)noc2C2CC2)C3)cc1-c1ccc(C(F)(F)F)nc1 (centres unmarked) [Example 799] | 133% | < 0.01 µM | 
O=C(O)c1ccc(NC(=O)N2C3CCC2CC(OCc2c(-c4c(Cl)cccc4Cl)noc2C2CC2)C3)c(F)c1 (centres unmarked) [Example 692] | 156% | < 0.01 µM | 
COC(=O)c1ccc2c(c1)N(C(=O)N1C3CCC1CC(OCc1c(-c4ccccc4OC(F)(F)F)noc1C1CC1)C3)CC2 (centres unmarked) [Example 589] |  | > 1 µM | 76%
O=C(Nc1ccc(F)c(F)c1)N1C2CCC1CC(OCc1c(-c3c(Cl)cccc3Cl)noc1C1CC1)C2 (centres unmarked) [Example 699] | 232% | 0.01 to 0.1 µM | 
COC(=O)c1ccc(NC(=O)N2C3CCC2CC(OCc2c(-c4ccccc4OC(F)(F)F)noc2C2CC2)C3)cc1OC(F)(F)F (centres unmarked) [Example 821] | 75% | 0.01 to 0.1 µM | 
N#Cc1cncc(NC(=O)N2C3CCC2CC(OCc2c(-c4c(Cl)cccc4Cl)noc2C2CC2)C3)c1 (centres unmarked) [Example 703] | 170% | < 0.01 µM | 
O=C(O)c1ccc(NC(=O)N2C3CCC2CC(OCc2c(-c4ccccc4C(F)(F)F)noc2C2CC2)C3)c(F)c1 (centres unmarked) [Example 807] | 42% | 0.01 to 0.1 µM | 
O=C(Nc1cccc(C(F)(F)F)c1)N1C2CCC1CC(NCc1c(-c3ccccc3OC(F)(F)F)noc1C1CC1)C2 (centres unmarked) [Example 121] |  | 0.01 to 0.1 µM | 
CCOc1cc(C(=O)OC)ccc1NC(=O)N1C2CCC1CC(OCc1c(-c3c(Cl)cccc3Cl)noc1C1CC1)C2 (centres unmarked) [Example 718] | 119% | 0.01 to 0.1 µM | 
CS(=O)(=O)NC(=O)c1ccc(NC(=O)N2C3CCC2CC(OCc2c(-c4ccccc4OC(F)(F)F)noc2C2CC2)C3)cc1 (centres unmarked) [Example 752] | 239% | > 1 µM | 
O=C(NS(=O)(=O)C1CC1)c1cccc(NC(=O)N2C3CCC2CC(OCc2c(-c4ccccc4OC(F)(F)F)noc2C2CC2)C3)c1 (centres unmarked) [Example 264] |  | > 1 µM | 
COc1cc(C(=O)O)ccc1NC(=O)N1C2CCC1CC(OCc1c(-c3ccccc3OC(F)(F)F)noc1C1CC1)C2 (centres unmarked) [Example 238] |  | < 0.01 µM | 
O=C(Nc1cncc(C(F)(F)F)c1)N1C2CCC1CC(OCc1c(-c3c(Cl)cccc3Cl)noc1C1CC1)C2 (centres unmarked) [Example 18] |  | < 0.01 µM | 
O=C(N[C@H]1CC[C@H](C(=O)O)CC1)N1C2CCC1CC(OCc1c(-c3ccccc3OC(F)(F)F)noc1C1CC1)C2 (some centres unmarked) [Example 266] |  | 0.1 to 1 µM | 
O=C(NCc1cccc(-c2ccccc2)c1)N1C2CCC1CC(OCc1c(-c3c(Cl)cccc3Cl)noc1C1CC1)C2 (centres unmarked) [Example 735] | 136% | 0.1 to 1 µM | 
COc1ccc(-c2cc(NC(=O)N3C4CCC3CC(OCc3c(-c5c(Cl)cccc5Cl)noc3C3CC3)C4)ccc2C(=O)O)cn1 (centres unmarked) [Example 787] | 97% | < 0.01 µM | 
COC(=O)c1ccc(NC(=O)N2C3CCC2CC(OCc2c(-c4c(Cl)cccc4Cl)noc2C2CC2)C3)c(F)c1-c1ccccc1 (centres unmarked) [Example 795] | 44% | 0.01 to 0.1 µM | 
O=C(O)c1ccc2c(c1)N(C(=O)N1C3CCC1CC(OCc1c(-c4ccccc4OC(F)(F)F)noc1C1CC1)C3)CCC2 (centres unmarked) [Example 596] |  | > 1 µM | 48%
CCOc1cc(C(=O)O)ccc1NC(=O)N1C2CCC1CC(OCc1c(-c3ccccc3C(F)(F)F)noc1C1CC1)C2 (centres unmarked) [Example 812] | 102% | 0.01 to 0.1 µM | 
O=C(O)c1ccc(NC(=O)N2C3CCC2CC(OCc2c(-c4c(Cl)cccc4Cl)noc2C2CC2)C3)cc1F (centres unmarked) [Example 197] |  | 0.01 to 0.1 µM | 
CN(C)S(=O)(=O)NC(=O)c1ccc(NC(=O)N2C3CCC2CC(OCc2c(-c4ccccc4OC(F)(F)F)noc2C2CC2)C3)cc1 (centres unmarked) [Example 753] | 217% | 0.01 to 0.1 µM | 
COC(=O)c1ccc(NC(=O)N2C3CCC2CC(OCc2c(-c4c(Cl)cccc4Cl)noc2C2CC2)C3)cc1C(F)(F)F (centres unmarked) [Example 194] |  | < 0.01 µM | 
